Results: patent US9096571B2, “Picolinamide and pyrimidine-4-carboxamide compounds, process for preparing and pharmaceutical composition comprising the same” (SK CHEMICALS CO., LTD., priority 2010, dated 2015)

Tests used:
11β-HSD1 = biological target: T1, 11β-HSD1 (Homo sapiens, UniProt P28845); settings: healthy candidates and type 2 diabetic patients, but not the obese; cited from earlier work
T1 construct: host or cells: human subjects in vivo

[1] = biological target: T2, human-derived 11β-HSD1 (h11β-HSD1) enzyme (Homo sapiens, UniProt P28845); test: Cell assay on 11β-HSD1 (HEK-293 cells overexpressing h11β-HSD1, cortisone to cortisol, cortisol ELISA); format: cell-based; settings: HEK293, HEK-293 cells transfected with h11β-HSD1; for inhibition at 10 µM: 10 μM compound, read-out: hHSD1 inhibiting activity, % inhibition at 10 μM; for inhibition at 100 µM: 100 μM compound, read-out: hHSD1 inhibiting activity, % inhibition at 100 μM
T2 construct: expressed in transfected cells; host or cells: HEK-293 cells, transfected with Fugene 6
Description: In order to investigate inhibitory effects of the compounds according to the present invention on activity of human-derived 11β-HSD1 (h11β-HSD1) enzyme, the following experiment was performed.
To assay the activity of the 11β-HSD1 enzyme, a recombinant DNA having h11β-HSD1 gene was introduced into an animal cell to induce overexpression of the enzyme [Arampatzis, S. J Mol. Endocrinol. […] First, HEK-293 cells were incubated using a cell incubator until they reached 70-80% confluency on a surface of the container. The recombinant DNA having h11β-HSD1 gene was mixed with Fugene 6, followed by reaction at room temperature for 1 hour. The resulting material was used to treat the cells, and thus DNA was injected into the cells. The next day, the cell supernatant was removed, followed by supplement of fresh medium, and then the cells were further incubated for 24 hours in the cell incubator.
When the cells were incubated at 70-80% confluency, the cells were detached with trypsin, and the number of cells was measured by using a Hemacytometer. The incubated liquid was diluted to contain 20,000 cells/ml, and 100 μl of the diluted liquid was plated onto each well of the 96-well plate. Following incubation for 24 hours, the compound dissolved in DMSO was diluted to 1/100 by the incubated liquid. 100 μl of the resulting compound-diluted liquid was dispensed into each well, and then incubated for 30 minutes.
The quantitative assay of cortisol generated in this reaction was performed by using a system provided from Assay Designs Inc. The resultant enzyme reactant was added to the plate coated with anti-mouse IgG, and then a specific antibody binding to the cortisol and alkaline phosphatase-bound cortisol are together input thereto, followed by reaction at room temperature for 2 hours. The contents in the wells after reaction were thrown away, and then washing was performed with a buffer solution consisting of surfactant and tris-buffered saline three times. After that, a p-nitrophenyl phosphate solution, which is a substrate for the alkaline phosphatase, was input thereto for coloring reaction, followed by reaction for 1 hour, and then the light absorbance at 405 nm was measured by using a plate reader.

T2 sequence (P28845 whole entry): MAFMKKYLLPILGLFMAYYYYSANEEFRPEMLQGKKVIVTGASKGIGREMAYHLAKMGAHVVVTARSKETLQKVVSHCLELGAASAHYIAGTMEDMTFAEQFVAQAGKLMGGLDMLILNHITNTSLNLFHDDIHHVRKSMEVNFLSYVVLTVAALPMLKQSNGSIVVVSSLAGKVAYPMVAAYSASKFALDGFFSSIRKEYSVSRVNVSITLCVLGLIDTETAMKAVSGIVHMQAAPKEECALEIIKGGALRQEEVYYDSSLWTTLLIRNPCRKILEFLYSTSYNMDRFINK
T1 sequence (P28845 whole entry): as above

Row | SMILES | effect on insulin sensitivity (11β-HSD1) | inhibition at 10 µM [1] [%] | inhibition at 100 µM [1] [%]
1 | CC1(C)[C@@H](OC(=O)CCC(=O)O)CC[C@]2(C)[C@H]3C(=O)C=C4[C@@H]5C[C@@](C)(C(=O)O)CC[C@]5(C)CC[C@@]4(C)[C@]3(C)CC[C@@H]12 [Carbenoxolone] | improves insulin sensitivity |  | 
2 | O=C(N[C@H]1C2CC3CC1C[C@](O)(C3)C2)c1cccc(N2CCC(c3ccccc3)CC2)n1 [Example 47] |  | 36 | 96
3 | O=C(N[C@H]1C2CC3CC1C[C@](O)(C3)C2)c1cccc(N2CCc3ccccc3C2)n1 [Example 60] |  | 68 | 82
4 | CC1CCCCN1c1cccc(C(=O)N[C@H]2C3CC4CC2C[C@](O)(C4)C3)n1 (stereo partly drawn) [Example 61] |  | 68 | 83
5 | CS(=O)(=O)c1ccc(N2CCN(c3cccc(C(=O)N[C@H]4C5CC6CC4C[C@](O)(C6)C5)n3)CC2)cc1 [Example 77, N-((E)-5-hydroxyadamantan-2-yl)-6-(4-(4-(methylsulfonyl)phenyl)piperazin-1-yl)picolinamide] |  | 73 | 87
6 | O=C(N[C@H]1C2CC3CC1C[C@](O)(C3)C2)c1cccc(N2CCN(c3ccc(F)cn3)CC2)n1 [Example 87] |  | 40 | 79
7 | Cc1ccc(N2CCN(c3cccc(C(=O)N[C@H]4C5CC6CC4C[C@](O)(C6)C5)n3)CC2)nc1 [Example 88] |  | 40 | 84
8 | O=C(N[C@H]1C2CC3CC1C[C@](O)(C3)C2)c1cccc(N2CCC(c3ccc(F)cn3)CC2)n1 [Example 97] |  | 58 | 77
9 | Cc1ccc(C2CCN(c3cccc(C(=O)N[C@H]4C5CC6CC4C[C@](O)(C6)C5)n3)CC2)nc1 [Example 98] |  | 38 | 78
10 | COc1ccc(N2CCN(c3cccc(C(=O)N[C@H]4C5CC6CC4C[C@](O)(C6)C5)n3)[C@H](C)C2)nc1 [Example 118] |  | 64 | 84
11 | COc1ccc(N2CCN(c3cccc(C(=O)N[C@H]4C5CC6CC4C[C@](O)(C6)C5)n3)[C@H](C)C2)cn1 [Example 119] |  | 65 | 81
12 | COc1ccc(N2CCCN(c3cccc(C(=O)N[C@H]4C5CC6CC4C[C@](O)(C6)C5)n3)CC2)c(F)c1 [Example 124] |  | 54 | 85
13 | C[C@@H]1CN(c2ccc(N)nc2)CCN1c1cccc(C(=O)N[C@H]2C3CC4CC2C[C@](O)(C4)C3)n1 [Example 125, 6-((R)-4-(6-aminopyridin-3-yl)-2-methylpiperazin-1-yl)-N-((E)-5-hydroxyadamantan-2-yl)picolinamide] |  | 48 | 79
14 | COc1ccc(N2CCN(c3cccc(C(=O)N[C@H]4C5CC6CC4C[C@](O)(C6)C5)n3)[C@H](C)C2)cc1C(N)=O [Example 150] |  | 76 | 87
15 | CNC(=O)c1cc(N2CCN(c3cccc(C(=O)N[C@H]4C5CC6CC4C[C@](O)(C6)C5)n3)[C@H](C)C2)ccc1OC [Example 151] |  | 75 | 85
16 | C[C@@H]1CN(c2ccc(C(C)(C)O)cc2)CCN1c1cccc(C(=O)N[C@H]2C3CC4CC2C[C@](O)(C4)C3)n1 [Example 173, N-((E)-5-hydroxyadamantan-2-yl)-6-((R)-4-(4-(2-hydroxypropan-2-yl)phenyl)-2-methylpiperazin-1-yl)picolinamide] |  | 81 | 87
17 | C[C@@H]1CN(c2ccc(OCC(N)=O)c(Cl)c2)CCN1c1cccc(C(=O)N[C@H]2C3CC4CC2C[C@](O)(C4)C3)n1 [Example 190, 6-((R)-4-(4-(2-amino-2-oxoethoxy)-3-chlorophenyl)-2-methylpiperazin-1-yl)-N-((E)-5-hydroxyadamantan-2-yl)picolinamide] |  | 76 | 89
18 | C[C@@H]1CN(CC(C)(C)O)CCN1c1cccc(C(=O)N[C@H]2C3CC4CC2C[C@](O)(C4)C3)n1 [Example 192, 6-((R)-4-(2-hydroxy-2-methylpropyl)-2-methylpiperazin-1-yl)-N-((E)-5-hydroxyadamantan-2-yl)picolinamide] |  | 41 | 85
19 | C[C@@H]1CN(C2CC2)CCN1c1cccc(C(=O)N[C@H]2C3CC4CC2C[C@](O)(C4)C3)n1 [Example 196, 6-((R)-4-cyclopropyl-2-methylpiperazin-1-yl)-N-((E)-5-hydroxyadamantan-2-yl)picolinamide] |  | 64 | 86
20 | C[C@@H]1CN(C2CCN(S(C)(=O)=O)CC2)CCN1c1cccc(C(=O)N[C@H]2C3CC4CC2C[C@](O)(C4)C3)n1 [Example 201, N-((E)-5-hydroxyadamantan-2-yl)-6-((R)-2-methyl-4-(1-(methylsulfonyl)piperidin-4-yl)piperazin-1-yl)picolinamide] |  | 40 | 78
21 | C[C@@H]1CN(S(C)(=O)=O)CCN1c1cccc(C(=O)N[C@H]2C3CC4CC2C[C@](O)(C4)C3)n1 [Example 204] |  | 41 | 76
22 | COc1ccc(N2CCN(c3nccc(C(=O)N[C@H]4C5CC6CC4C[C@](O)(C6)C5)n3)[C@H](C)C2)c(F)c1 [Example 231] |  | 42 | 78
23 | C[C@H]1CN(c2ccc(S(C)(=O)=O)cc2F)CCN1c1nccc(C(=O)N[C@H]2C3CC4CC2C[C@](O)(C4)C3)n1 [Example 284] |  | 56 | 86
